# Measured values published in patent US20170002373A1, “METHOD OF PRODUCING LEAFY BIOMASS” (Imperial Innovations Limited, priority 2009, published 2017).
# Columns and labels:
# GFP-6 calli = test: Shoot induction from transplastomic calli on solid MS medium; type: cell-based, Nicotiana tabacum Petit Havana; details: data not shown; for shoot formation from calli: GFP-6 calli grown on solid MS medium with TDZ, shoots after 6 weeks
# [1] = tested on: transplastomic cell suspensions from the tobacco GFP-6 line; test: Shoot/leafy biomass production from cell suspensions in temporary immersion bioreactor; type: cell-based, Nicotiana tabacum Petit Havana; details: 2-L temporary immersion bioreactor, MS media supplemented with 0.1 μM TDZ, after about six weeks
# Experimental: Given that transplastomic gene expression seemed to be highest in leaf tissue we sought to develop a method for the rapid production of leaf tissue from callus/cell suspensions. […] In order to scale up the production capacity, transplastomic cell suspensions from the tobacco GFP-6 line were loaded into a 2-L bioreactor and temporally submerged in MS media supplemented with 0.1 μM TDZ. […] During the first 14 days, no growth could be detected and shoots only started to grow after this period. Possibly this lag period is related to the time needed for cells to redifferentiate from callus tissue to leafy tissue in tobacco in a similar manner to the observed switch between calli and meristematic tissues in Arabidopsis thaliana (Gordon et al, 2007).
# Tobacco biomass was generated by placing about 7 grams of Nicotiana tabacum Petit Havana cell suspensions in a 2-L temporary immersion bioreactor (Ducos et al, 2007). Immersions were performed over a 40-day period with 1-L MS media supplemented with 0.1 μM Thidiazuron (TDZ, Sigma, UK) every three hours for 5 min. Additionally, the media contained 100 mg/L of spectinomycin to prevent contamination and to select for transplastomic cells. The TDZ (Thidiazuron) concentration in MS media was estimated to be optimal at 0.1 μM by researchers in Nestle, based on calli solid induction in Petri dishes (data not shown). […]
structure (smiles),measurement,setting,value
O=C(Nc1ccccc1)Nc1cnns1 [Thidiazuron],shoot formation from calli,GFP-6 calli,able to induce shoot formation
same,shoot formation from calli,GFP-6 calli; listed as thidiazuron,induced the formation of shoots from calli
same,optimal TDZ concentration in MS media,"GFP-6 calli; based on calli solid induction in Petri dishes, estimated by researchers in Nestle",0.1 µM
same,shoot formation from cell suspensions,[1],a large number of shoots were produced
